Measured values published in patent US20260232662A1, “MIR-124 INDUCER, AND PREPARATION METHOD THEREFOR AND USE THEREOF” (NANJING SYNNOCARE PHARMACEUTICAL TECHNOLOGY CO., LTD., priority 2023, published 2026).

Tested on: miR-124
Test: Induction of miR-124 expression in PBMC cells (qPCR)
Format: cell-based
Conditions: Homo sapiens, 72 h, 0.1 μM compound, human PBMCs stimulated with PMA/ionomycin, miR-191 reference gene, read-out: miR-124 expression, Fold change vs DMSO
Procedure: This study evaluated the ability of the compound of the present invention to influence miR-124 transcriptional activity in vitro. The experiment analyzed miR-124 expression in human PBMCs (Sailybio) using quantitative PCR (qPCR).
Thawed human PBMCs (1 mL) were added to 19 mL of culture medium (RPMI1640+10% hFBS+1‰ 2-mercaptoethanol) and the PBMCs were incubated in a cell culture incubator for 30 minutes. The PBMCs were collected and the cells (3.0*10^6 cells/well/3 mL) were resuspended in medium containing PMA (10 ng/mL; Invivogen) and ionomycin (200 ng/mL; Invivogen). The cells were incubated in a 6-well plate for 48 hours. Diluted compound was added to the cells to achieve a final concentration of 0.1 μM. After 72 hours, the samples were centrifuged and the cells were collected.
Total miRNA was extracted from the cells using the MiPure Cell/Tissue miRNA Kit (Vazyme) according to the manufacturer's instructions, followed by purification. The purified samples were treated with genomic DNA elimination buffer, and reverse transcription was performed using a GeneAmp PCR System. The resulting cDNA was subjected to quantitative real-time PCR (qPCR) analysis on a QuantStudio™ 7 Flex Real-Time PCR System. Data analysis was performed using the QuantStudio 7 software with default settings to automatically determine Ct values, and the results were exported. In this assay, miR-191 was used as the reference gene, and the DMSO-treated group served as the control. The relative expression of miR-124 was calculated using the following formula: […]

SMILES | fold induction at 0.1 µM
Fc1cc(NC2=Nc3c(Cl)cccc3N3CCN=C23)ccc1C(F)(F)F [Compound 69] | 22.9
FC(F)(F)Oc1ccc(Nc2nc3cc(Cl)cc(Cl)c3n3ccnc23)cc1 [Compound B21, 7,9-dichloro-N-(4-(trifluoromethoxy)phenyl)imidazolo [1,2-a]quinoxalin-4-amine] | 35.2
Fc1cccc2c1nc(Nc1ccc(OC(F)(F)F)c(Cl)c1)c1nccn12 [Compound 44] | 17.5
FC1(F)Oc2ccc(Nc3nc4cccc(Cl)c4n4ccnc34)cc2O1 [Compound B52, 9-chloro-N-(2,2-difluorobenzo[d] [1,3]dihydroxy-5-yl) imidazolo[1,2-a]quinoxalin-4-amine] | 30.2
FC(F)(F)Oc1ccc(NC2=Nc3cc(Cl)cc(Cl)c3N3CCN=C23)cc1Cl [Compound B138, 7,9-dichloro-N-(3-chloro-4-(trifluoromethoxy)phenyl)-1,2-dihydroimidazo[1,2-a] quinoxalin-4-amine] | 29.9
FC(F)(F)Oc1ccc(NC2=Nc3c(Cl)cc(Cl)cc3N3CCN=C23)cc1 [Compound 85] | 10.4
Fc1cc(Nc2nc3cc(Cl)cc(F)c3n3ccnc23)ccc1OC(F)(F)F [Compound B88, 7-chloro-9-fluoro-N-(3-fluoro-4-(trifluoromethoxy)phenyl) imidazolo[1,2-a] quinoxalin-4-amine] | 20.1
Fc1cc(Nc2nc3cccc(F)c3n3ccnc23)ccc1C(F)(F)F [Compound B79, 9-fluoro-N-(3-fluoro-4-(trifluoromethyl)phenyl) imidazolo[1,2-a] quinoxalin-4-amine] | 22.3
FC(F)(F)c1ccc(Nc2nc3c(Cl)cc(Cl)cc3n3ccnc23)cc1 [Compound 62] | 15.5
Fc1cc(Nc2nc3cccc(Cl)c3n3ccnc23)ccc1OC(F)(F)F [Compound B55, 9-chloro-N-(3-Fluoro-4-(trifluoromethoxy)phenyl)imidazolo [1,2-a]quinoxalin-4-amine] | 36.3
FC(F)(F)Sc1ccc(Nc2nc3cc(Cl)cc(Cl)c3n3ccnc23)cc1 [Compound B99, 7,9-dichloro-N-(4-(trifluoromethylthio)phenyl) imidazolo[1,2-a] quinoxalin-4-amine] | 17.6
Fc1cc(NC2=Nc3cc(Cl)cc(F)c3N3CCN=C23)ccc1OC(F)(F)F [Compound B131, 7-chloro-9-fluoro-N-(3-fluoro-4-(trifluoromethoxy)phenyl)-1,2-dihydroimidazo[1,2-a] quinoxalin-4-amine] | 27
Cn1c(=O)c(Nc2ccc(OC(F)(F)F)cc2)nc2c(Cl)cccc21 [Compound 1, 5-Chloro-1-methyl-3-((4-(trifluoromethoxy)phenyl)amino) quinoxalin-2(1H)-one] | 16
Fc1cc(Nc2nc3cccc(F)c3n3ccnc23)ccc1OC(F)(F)F [Compound B76, 9-fluoro-N-(3-fluoro-4-(trifluoromethoxy)phenyl) imidazolo[1,2-a] quinoxalin-4-amine] | 18.5
FC(F)(F)Sc1ccc(Nc2nc3c(Cl)cccc3n3ccnc23)cc1 [Compound 15] | 12.7
Fc1cc(Nc2nc3c(F)cccc3n3ccnc23)ccc1C(F)(F)F [Compound 46] | 9.99
FC(F)(F)Oc1ccc(Nc2nc3cc(Cl)c(Cl)cc3n3ccnc23)cc1 [Compound B24, 7,8-dichloro-N-(4-(trifluoromethoxy)phenyl)imidazolo [1,2-a]quinoxalin-4-amine] | 26.7
Fc1cc(NC2=Nc3c(F)cc(Cl)cc3N3CCN=C23)ccc1OC(F)(F)F [Compound 92] | 18.8
Fc1cc(NC2=Nc3cc(Cl)cc(Cl)c3N3CCN=C23)ccc1C(F)(F)F [Compound B140, 7,9-dichloro-N-(3-fluoro-4-(trifluoromethyl)phenyl)-1,2-dihydroimidazo[1,2-a] quinoxalin-4-amine] | 38.4
FC(F)(F)Oc1ccc(Nc2nc3c(Cl)cc(Cl)cc3n3ccnc23)cc1 [Compound 61] | 12.1
FC(F)(F)Oc1ccc(Nc2nc3cccc(Br)c3n3ccnc23)cc1 [Compound B3, 9-bromo-N-(4-(trifluoromethoxy)phenyl)imidazolo [1,2-a]quinoxalin-4-amine] | 23.5
Fc1cc(NC2=Nc3cc(Cl)cc(Cl)c3N3CCN=C23)ccc1OC(F)(F)F [Compound B137, 7,9-dichloro-N-(3-fluoro-4-(trifluoromethoxy)phenyl)-1,2-dihydroimidazo[1,2-a] quinoxalin-4-amine] | 31.1
Cn1c(=O)c(Nc2ccc(OC(F)(F)F)cc2)nc2c(F)cc(Cl)cc21 [Compound 13] | 20.9

SMILES | fold induction at 0.1 µM
FC(F)(F)Oc1ccc(Nc2nc3c(Cl)cccc3n3cnnc23)cc1 [Compound 6] | 11.9
Fc1cc(Cl)cc2c1N=C(Nc1ccc(C(F)(F)F)cc1)C1=NCCN12 [Compound 95] | 27
FC(F)(F)c1ccc(Nc2nc3c(Cl)cccc3n3ccnc23)cc1Cl [Compound 29] | 9.32
FC(F)Oc1ccc(Nc2nc3cccc(Cl)c3n3ccnc23)cc1 [Compound B59, 9-chloro-N-(4-(difluoromethoxy)phenyl)imidazolo [1,2-a]quinoxalin-4-amine] | 25.4
FC(F)(F)Oc1ccc(Nc2nc3cccc(Cl)c3n3ccnc23)cc1Cl [Compound B56, 9-chloro-N-(3-chloro-4-(trifluoromethoxy)phenyl)imidazolo [1,2-a]quinoxalin-4-amine] | 40.7
Fc1cc(NC2=Nc3ccc(Cl)cc3N3CCN=C23)ccc1OC(F)(F)F [Compound B143, 8-chloro-N-(3-fluoro-4-(trifluoromethoxy)phenyl)-1,2-dihydroimidazo[1,2-a] quinoxalin-4-amine] | 28.4
Cn1c(=O)c(Nc2ccc(SC(F)(F)F)cc2)nc2c(Cl)cccc21 [Compound 10] | 15.4
FC(F)(F)c1ccc(Nc2nc3cc(Cl)cc(Cl)c3n3ccnc23)cc1 [Compound B96, 7,9-dichloro-N-(4-(trifluoromethyl)phenyl) imidazolo[1,2-a] quinoxalin-4-amine] | 23.2
FC(F)(F)Oc1ccc(NC2=Nc3cc(Cl)ccc3N3CCN=C23)cc1 [Compound B148, 7-chloro-N-(4-(trifluoromethoxy)phenyl)-1,2-dihydroimidazo[1,2-a] quinoxalin-4-amine] | 29.4
Fc1cc(Cl)cc2c1nc(Nc1ccc3c(c1)OC(F)(F)O3)c1nccn12 [Compound 55] | 22.3
Fc1cc(Cl)cc2nc(Nc3ccc(C(F)(F)F)cc3)c3nccn3c12 [Compound B90, 7-chloro-9-fluoro-N-(4-(trifluoromethyl)phenyl) imidazolo[1,2-a] quinoxalin-4-amine] | 24.9
Fc1cccc2c1nc(Nc1ccc(OC(F)(F)F)cc1)c1nccn12 [Compound 41] | 24.4
FC(F)(F)Oc1ccc(Nc2nc3c(Cl)cc(Cl)cc3n3ccnc23)cc1Cl [Compound 66] | 22.7
FC(F)(F)Oc1ccc(Nc2nc3ccc(Cl)c(Cl)c3n3ccnc23)cc1 [Compound B16, 8,9-dichloro-N-(4-(trifluoromethoxy)phenyl)imidazolo [1,2-a]quinoxalin-4-amine] | 33.4
Fc1cc(NC2=Nc3cc(Cl)cc(F)c3N3CCN=C23)ccc1C(F)(F)F [Compound B134, 7-chloro-9-fluoro-N-(3-fluoro-4-(trifluoromethyl)phenyl)-1,2-dihydroimidazo[1,2-a] quinoxalin-4-amine] | 27.5
Fc1cc(NC2=Nc3c(Br)cccc3N3CCN=C23)ccc1OC(F)(F)F [Compound 83] | 18.3
Fc1cccc2nc(Nc3ccc(C(F)(F)F)c(Cl)c3)c3nccn3c12 [Compound B80, 9-fluoro-N-(3-chloro-4-(trifluoromethyl)phenyl) imidazolo[1,2-a] quinoxalin-4-amine] | 17.2
FC(F)(F)c1ccc(Nc2nc3ccc(Cl)cc3n3ccnc23)cc1Cl [Compound B105, 8-chloro-N-(3-chloro-4-(trifluoromethyl)phenyl) imidazolo[1,2-a] quinoxalin-4-amine] | 27.8
Fc1cc(Nc2nc3ccc(Cl)cc3n3ccnc23)ccc1C(F)(F)F [Compound B104, 8-chloro-N-(3-fluoro-4-(trifluoromethyl)phenyl) imidazolo[1,2-a] quinoxalin-4-amine] | 28.1
FC(F)(F)Oc1ccc(NC2=Nc3c(Cl)cccc3N3CCN=C23)cc1Cl [Compound 72] | 19
FC(F)(F)c1ccc(Nc2nc3cccc(Cl)c3n3ccnc23)nc1 [Compound B67, 9-chloro-N-(5-(trifluoromethyl)pyridin-2-yl) imidazolo [1,2-a]quinoxalin-4-amine] | 23.4
FC(F)(F)Oc1ccc(Nc2nc3ccc(Br)cc3n3ccnc23)cc1 [Compound B6, 8-bromo-N-(4-(trifluoromethoxy)phenyl)imidazolo [1,2-a]quinoxalin-4-amine] | 22
